In patent publication US5326902A, “Oxyalkyne compounds, pharmaceutical compositions containing them and processes for preparing such compounds and compositions” (Gruenenthal GmbH, priority 1992, dated 1994):

Tests used:
5-lipoxygenase [1] = molecular target: T1, 5-lipoxygenase (Rattus norvegicus, UniProt P12527); experiment: Inhibition of 5-lipoxygenase in RBL-1-cells; format: cell-based; details: 20 μM [14C]-arachidonic acid, 20 μM calcium ionophore A 23 187, 10 minutes
T1 construct: endogenous in cells; host or cells: RBL-1 cells (rat basophilic leukemia)
T1 sequence (P12527 1-673): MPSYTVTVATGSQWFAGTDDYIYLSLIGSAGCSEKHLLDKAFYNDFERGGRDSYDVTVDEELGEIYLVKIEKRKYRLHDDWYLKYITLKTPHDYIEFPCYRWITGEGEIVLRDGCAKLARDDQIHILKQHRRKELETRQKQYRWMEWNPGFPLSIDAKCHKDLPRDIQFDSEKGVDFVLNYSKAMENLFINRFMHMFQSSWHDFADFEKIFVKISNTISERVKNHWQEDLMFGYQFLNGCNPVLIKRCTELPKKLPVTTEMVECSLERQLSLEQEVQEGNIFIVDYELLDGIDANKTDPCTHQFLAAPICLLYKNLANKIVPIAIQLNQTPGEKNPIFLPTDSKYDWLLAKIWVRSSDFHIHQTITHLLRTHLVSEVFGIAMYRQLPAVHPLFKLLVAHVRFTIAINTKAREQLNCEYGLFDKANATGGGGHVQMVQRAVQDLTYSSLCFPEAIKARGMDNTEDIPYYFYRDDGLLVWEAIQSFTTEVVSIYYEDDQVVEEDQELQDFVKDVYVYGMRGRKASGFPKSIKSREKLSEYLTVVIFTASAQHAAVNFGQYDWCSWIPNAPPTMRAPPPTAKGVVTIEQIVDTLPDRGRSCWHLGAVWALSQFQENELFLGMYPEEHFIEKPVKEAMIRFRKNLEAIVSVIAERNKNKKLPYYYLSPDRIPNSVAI
Method: To determine the inhibition of 5-lipoxygenase, rat basophilic leukemia cells (RBL-1-cells) were cultured in vitro, harvested by centrifugation, washed with 50 mM potassium phosphate buffer of pH 7.4, and then suspended in this buffer at 1×10^7 cells/ml. Indomethacin (10 μM) and calcium chloride (2 mM) were added to 1 ml portions of this suspension, and then the mixture was incubated either in the presence of a compound according to the invention in a concentration range of from 0,1 μM to 100 μM or in the presence of a solvent (ethanol and/or dimethyl sulfoxide) for 3 minutes and thereafter with 20 μM of [^14 C]-arachidonic acid and 20 μM of calcium ionophore A 23 187 for 10 minutes. The reaction was stopped by adding 20 μl of glacial acetic acid, and then the mixture was extracted with ethyl acetate to isolate the metabolites of arachidonic acid formed by the enzymatic action of 5-lipoxygenase. These were separated by thin layer chromatography using a solvent mixture known to be suitable for lipoxygenase products [c.f. Jakschik et al., Biochem. Biophys. Res. Commun. 102, 624 (1981)].
The distribution of radioactivity among the different metabolites of arachidonic acid was measured using a TLC Linear Analyzer. By correlating the percentage amounts of the products formed under the action of 5-lipoxygenase (5HETE, isomers of LTB4) in the absence as well as in the presence of different concentrations of compounds according to the invention, the IC50 -values, i.e. the concentrations which cause a 50% inhibition of 5-lipoxygenase, were determined graphically from semilogarithmic plots.

[2] = tested on: bronchoconstriction elicited by ovalbumin; experiment: Allergen-induced bronchoconstriction in guinea pigs (Konzett-Rossler); format: in vivo, guinea pig; details: Cavia porcellus, 1 h; oral, 60 minutes before ovalbumin (0.2 mg/kg intravenous); passively sensitized guinea pigs; read-out: ED40-Value (40% average inhibition of the bronchoconstriction elicited by ovalbumin)
Method: The anti-asthmatic effect of compounds according to the invention was tested in anesthetized and ventilated guinea pigs. To induce an asthmatic reaction, the animals were passively sensitized by a single intraperitoneal injection of anti-ovalbumin serum. After 48 hours, the asthmatic reaction was elicited by intravenous challenge with 0.2 mg/kg of ovalbumin. The immediately resulting bronchoconstriction was measured as an increase in intratracheal pressure. Effects caused by histamine, serotonin and sympathic counterreaction were eliminated by intravenous pretreatment with 2.15 mg/kg of mepyramine, 46.4 μg/kg of propranolol, 4.64 mg/kg of atropine and 1 mg/kg of methysergide, all administered 5 minutes before challenge. Compounds according to the invention were administered orally 60 minutes before the administration of ovalbumin. The following […] for the inhibition of the bronchoconstriction elicited by ovalbumin, i.e. the effective doses causing a 40% average inhibition of the bronchoconstriction, were determined: […]

5-lipoxygenase [3] = molecular target: T1, 5-lipoxygenase; experiment: Inhibition of Cell-free 5-lipoxygenase from RBL-1-cells (polarographic, 10,000 × g supernatant); format: biochemical; details: 10,000 × g supernatant of homogenized RBL-1-cells; arachidonic acid 75 μM; 35° C.; calculated IC50
Method: Cell-free 5-lipoxygenase was polarographically measured from 10,000 × g supernatant of homogenized rat basophilic leucemia cells (M. Haurand & L. Flohe in Biol. Chem. Hoppe-Seyler 369, 133 to 142 (1988)). After preincubation of the 10,000 × g supernatant with arachidonic acid (75 μM), ATP (adenosine triphosphate; 4 mM), reduced glutathione (4 mM), and either a compound according to the invention (0.1 to 100 μM) or a solvent (ethanol and/or dimethyl sulfoxide) at 35° C. for 5 minutes, the lipoxygenase reaction was initiated by addition of calcium chloride (3 mM) and simultaneously recorded.
The activity of 5-lipoxygenase was determined from the difference in the pO2 -decrease before and after addition of calcium chloride. The evaluation included the initial rate of the reaction after the lag-phase as well as the duration of the lag-phase. In the concentration range of from 3 to 50 μM, the test substances induced lag-phases between 20 and 60 seconds.

5-lipoxygenase [4] = experiment: Inhibition of 5-lipoxygenase in Rat Blood After Oral Administration (ex vivo iLTB4-formation); details: male Wistar rats, one hour after administration
Method: The bioavailability of the compounds of formula I as 5-lipoxygenase inhibitors was characterized by means of an ex vivo biochemical assay method described by Tateson et al. in Brit. J. Pharmacol. 94, 528 (1988): A compound of formula I was orally administered to male rats (Wistar strain) at a dose of 21.5 mg/kg. After lethal CO2 -narcosis one hour after administration, the rats were bled by heart puncture with added heparin as an anticoagulant. Aliquots of the whole blood were incubated at 37° C. for 30 minutes in a water bath with calcium ionophore A 23 187 at an end concentration of 15 μg/ml. At the end of the incubation, the samples were centrifuged, and the concentration of the immunoreactive LTB4 (iLTB4) in aliquots of cell-free plasma was determined by radioimmunoassay (3H-LTB4 -RIA, Amersham). To enable calculation of the inhibition in percent of ex vivo iLTB4 -formation in whole rat blood treated with a compound according to the invention, rats orally treated with an appropriate vehicle solution were included in all experiments, and aliquots of their blood were run in parallel and were processed in the same way as described. The average iLTB4 -content of the plasma of the vehicletreated rats served as a 100% value. The activity in percent of the ex vivo iLTB4 -formation after oral administration of a compound according to the invention was calculated by dividing the average value of the iLTB4 -contents in ng iLTB4 /ml of the group treated with a compound according to the invention by the average value of the iLTB4 -contents in ng iLTB4 /ml of the vehicle treated group and subsequent multiplication by a factor of 100. The respective inhibition in percent was calculated by subtracting the activity in percent from 100.

| Compound | IC50 (5-lipoxygenase [1]) [µM] | IC50 (5-lipoxygenase [3]) [µM] | further results |
| --- | --- | --- | --- |
| CC(=O)N(O)Cc1ccc(C(O)C#Cc2ccccc2)cc1 (single isomer, unassigned; (+)) [Example 2, (+)-N-Hydroxy-N-[4-[1-hydroxy-3-phenyl-prop-2-yn-1-yl]benzyl]acetamide] | 4 | – | – |
| CC(=O)N(O)Cc1ccc(C(O)C#Cc2ccccc2)cc1 (single isomer, unassigned; (-)) [Example 3, (-)-N-Hydroxy-N-[4-[1-hydroxy-3-phenyl-prop-2-yn-1-yl]benzyl]acetamide] | 5 | – | ED40 [2]: 9 mg/kg |
| CC(=O)OC(C#Cc1ccccc1)c1ccc(CN(O)C(C)=O)cc1 (centres unmarked) [Example 4, N-Hydroxy-N-[4-[1-acetoxy-3-phenyl-prop-2-yn-1-yl]benzyl]acetamide] | 4 | 9 | – |
| CCOC(C#Cc1ccccc1)c1ccc(CN(O)C(C)=O)cc1 (centres unmarked) [Example 5] | 4 | 5 | – |
| CC(=O)N(O)C(C)c1ccc(C(O)C#Cc2ccccc2)cc1 (centres unmarked) [Example 6, N-Hydroxy-N-[1-[4-(1-hydroxy-3-phenyl-prop-2-yn-1-yl)phenyl]ethyl]acetamide] | – | 8 | – |
| CC(=O)N(O)Cc1ccc(C(O)C#Cc2ccccc2Cl)cc1 (centres unmarked) [Example 9, N-Hydroxy-N-[4-[1-hydroxy-3-(2-chlorophenyl)prop-2-yn-1-yl]benzyl]acetamide] | 4 | – | – |
| CC(=O)N(O)Cc1ccc(C(O)C#Cc2cccc(Cl)c2)cc1 (centres unmarked) [Example 10, N-Hydroxy-N-[4-[1-hydroxy-3-(3-chlorophenyl)prop-2-yn-1-yl]benzyl]acetamide] | 4 | – | Inhibition [%] of ex vivo iLTB4-formation (5-lipoxygenase [4]; 21.5 mg/kg oral): 75% |
| CC(=O)N(O)Cc1ccc(C(O)C#Cc2ccc(Cl)cc2)cc1 (centres unmarked) [Example 11, N-Hydroxy-N-[4-[1-hydroxy-3-(4-chlorophenyl)prop-2-yn-1-yl]benzyl]acetamide] | 8 | – | Inhibition [%] of ex vivo iLTB4-formation (5-lipoxygenase [4]; dose 10 mg/kg, oral): 95% |
| COc1cccc(C#CC(O)c2ccc(CN(O)C(C)=O)cc2)c1 (centres unmarked) [Example 13, N-Hydroxy-N-[4-[1-hydroxy-3-(3-methoxyphenyl)prop-2-yn-1-yl]benzyl]acetamide] | 3 | 3 | – |
| CC(=O)N(O)Cc1ccc(C(O)C#Cc2cccc3ccccc23)cc1 (centres unmarked) [Example 15, N-Hydroxy-N-[4-[1-hydroxy-3-(1-naphthyl)prop-2-yn-1-yl]benzyl]acetamide] | 3 | 7 | Inhibition [%] of ex vivo iLTB4-formation (5-lipoxygenase [4]; 21.5 mg/kg oral): 71% |
| CC(=O)N(O)Cc1ccc(C(O)C#Cc2ccsc2)cc1 (centres unmarked) [Example 17, N-Hydroxy-N-[4-[1-hydroxy-3-(3-thienyl)prop-2-yn-1-yl]benzyl]acetamide] | 5 | – | Inhibition [%] of ex vivo iLTB4-formation (5-lipoxygenase [4]; 21.5 mg/kg oral): 77% |
| CC(=O)N(O)Cc1cccc(C(O)C#Cc2ccccc2)c1 (centres unmarked) [Example 19, N-Hydroxy-N-[3-[1-hydroxy-3-phenyl-prop-2-yn-1-yl]benzyl]acetamide] | 3 | – | – |

The next lines start with results.

| IC50 (5-lipoxygenase [1]) [µM] | IC50 (5-lipoxygenase [3]) [µM] | Compound | further results |
| --- | --- | --- | --- |
| – | 7 | CC(=O)N(O)Cc1cccc(C(O)C#Cc2ccsc2)c1 (centres unmarked) [Example 20, N-Hydroxy-N-[3-[1-hydroxy-3-(3-thienyl)prop-2-yn-1-yl]benzyl]acetamide] | – |
| 4 | 8 | NC(=O)N(O)Cc1ccc(C(O)C#Cc2ccccc2Cl)cc1 (centres unmarked) [Example 22, N-Hydroxy-N-[4-[1-hydroxy-3-(2-chlorophenyl)prop-2-yn-1-yl]benzyl]urea] | Inhibition [%] of ex vivo iLTB4-formation (5-lipoxygenase [4]; dose 10 mg/kg, oral): 83% |
| 4 | – | NC(=O)N(O)Cc1ccc(C(O)C#Cc2cccc(Cl)c2)cc1 (centres unmarked) [Example 23, N-Hydroxy-N-[4-[1-hydroxy-3-(3-chlorophenyl)prop-2-yn-1-yl]benzyl]urea] | ED40 [2]: 18 mg/kg |
| 3 | – | NC(=O)N(O)Cc1ccc(C(O)C#Cc2ccc(Cl)cc2)cc1 (centres unmarked) [Example 24, N-Hydroxy-N-[4-[1-hydroxy-3-(4-chlorophenyl)prop-2-yn-1-yl]benzyl]urea] | – |
| 4 | – | COc1cccc(C#CC(O)c2ccc(CN(O)C(N)=O)cc2)c1 (centres unmarked) [Example 26, N-Hydroxy-N-[4-[1-hydroxy-3-(3-methoxyphenyl)prop-2-yn-1-yl]benzyl]urea] | ED40 [2]: 17 mg/kg |
| 3 | – | NC(=O)N(O)Cc1ccc(C(O)C#Cc2cccs2)cc1 (centres unmarked) [Example 27, N-Hydroxy-N-[4-[1-hydroxy-3-(2-thienyl)prop-2-yn-1-yl]benzyl]urea] | – |
| 4 | – | NC(=O)N(O)Cc1ccc(C(O)C#Cc2ccsc2)cc1 (centres unmarked) [Example 28, N-Hydroxy-N-[4-[1-hydroxy-3-(3-thienyl)prop-2-yn-1-yl]benzyl]urea] | ED40 [2]: 17 mg/kg |
| 4 | – | NC(=O)N(O)Cc1cccc(C(O)C#Cc2ccccc2)c1 (centres unmarked) [Example 29, N-Hydroxy-N-[3-[1-hydroxy-3-phenyl-prop-2-yn-1-yl]benzyl]urea] | – |
| 5 | 6 | CCOC(C#Cc1ccc(OC)c(OC)c1)c1ccc(CN(O)C(C)=O)cc1 (centres unmarked) [Example 33, N-Hydroxy-N-[4-[1-ethoxy-3-(3,4-dimethoxyphenyl)prop-2-yn-1-yl]benzyl]acetamide] | – |
| 3 | 5 | CCOC(C#Cc1cccs1)c1ccc(CN(O)C(N)=O)cc1 (centres unmarked) [Example 35, N-Hydroxy-N-[4-[1-ethoxy-3-(2-thienyl)prop-2yn-1-yl]benzyl]urea] | – |
